Where “and” joins values, the source holds several entries; their conditions need not be identical. Identical values can stand only once.
Organism: Rattus norvegicus
Assay: Open TG-GATES - Regimen: Single
Type: toxicity, organism-based, Sprague-Dawley
Set-up: regimen Single, gender Male, age 6 weeks
Conditions: in vivo, po, route gavage; for ALT / AST / BUN / CRE / Ca / Cl / GLC / IP / K / LDH / Na / PL / RALB / TC / TG / TP / A/G / ALP / DBIL / TBIL / gamma-GTP: tissue Plasma; for APTT / Bas / Eos / Fbg / Hb / Ht / Lym / MCH / MCHC / MCV / Mono / Neu / PT / Plat / RBC / Ret / WBC: tissue Blood; for KIDNEY_L / KIDNEY_R / KIDNEY_TOTAL: tissue Kidney; for LIVER: tissue Liver
[1] = 0 mg/kg, 24 h, dose level Control

With O=C1CN(/N=C/c2ccc([N+](=O)[O-])o2)C(=O)N1 [NITROFURANTOIN] the ALT [1] was 40.2 IU/L and 32.2 IU/L, the AST [1] was 67 IU/L and 61.8 IU/L and the BUN [1] was 15.6 mg/dL and 16 mg/dL. For the same compound, the CRE [1] was 0.4 mg/dL, the Ca [1] was 10.9 mg/dL and 11.3 mg/dL and the Cl [1] was 101.4 meq/L and 105.8 meq/L. The GLC [1] was 211.2 mg/dL and 198.2 mg/dL, the IP [1] was 7.6 mg/dL and 9.2 mg/dL and the K [1] was 4 meq/L and 4.4 meq/L. The LDH [1] was 161.6 IU/L and 69.4 IU/L, the Na [1] was 140 meq/L and 141 meq/L and the PL [1] was 149.8 mg/dL and 148.2 mg/dL. The RALB [1] was 3.2 g/dL and 3.9 g/dL, the TC [1] was 76.4 mg/dL and 80.6 mg/dL and the TG [1] was 110 mg/dL and 123 mg/dL. For the same compound, the TP [1] was 5.6 g/dL and 5.5 g/dL, the TERMINAL_BW (10 mg/kg, 3 h, dose level Low) was 221.7 g and the APTT (10 mg/kg, 3 h, dose level Low) was 20.2 s. The Bas (10 mg/kg, 3 h, dose level Low) was 0%, the Eos (10 mg/kg, 3 h, dose level Low) was 1.2% and the Fbg (10 mg/kg, 3 h, dose level Low) was 216.6 mg/dL. It also gave a Hb (10 mg/kg, 3 h, dose level Low) of 13.5 g/dL, a Ht (10 mg/kg, 3 h, dose level Low) of 38.5% and a Lym (10 mg/kg, 3 h, dose level Low) of 77%. For the same compound, the MCH (10 mg/kg, 3 h, dose level Low) was 21.5 pg, the MCHC (10 mg/kg, 3 h, dose level Low) was 35.1% and the MCV (10 mg/kg, 3 h, dose level Low) was 61.3 fL. The Mono (10 mg/kg, 3 h, dose level Low) was 3%, the Neu (10 mg/kg, 3 h, dose level Low) was 17.4% and the PT (10 mg/kg, 3 h, dose level Low) was 12.5 s. The Plat (10 mg/kg, 3 h, dose level Low) was 112.9 x10_4/uL, the RBC (10 mg/kg, 3 h, dose level Low) was 628.8 x10_4/ul and the Ret (10 mg/kg, 3 h, dose level Low) was 7.4%. The WBC (10 mg/kg, 3 h, dose level Low) was 88.6 x10_2/uL, the KIDNEY_L (10 mg/kg, 3 h, dose level Low) was 1 g and the KIDNEY_R (10 mg/kg, 3 h, dose level Low) was 1 g. It also gave a KIDNEY_TOTAL (10 mg/kg, 3 h, dose level Low) of 2 g, an LIVER (10 mg/kg, 3 h, dose level Low) of 10.3 g and an A/G (10 mg/kg, 3 h, dose level Low) of 1.6. For the same compound, the ALP (10 mg/kg, 3 h, dose level Low) was 999 IU/L, the ALT (10 mg/kg, 3 h, dose level Low) was 42.2 IU/L and the AST (10 mg/kg, 3 h, dose level Low) was 69.6 IU/L. It also gave a BUN (10 mg/kg, 3 h, dose level Low) of 12.2 mg/dL, a CRE (10 mg/kg, 3 h, dose level Low) of 0.3 mg/dL and a Ca (10 mg/kg, 3 h, dose level Low) of 10.8 mg/dL. It also gave a Cl (10 mg/kg, 3 h, dose level Low) of 101.8 meq/L, a DBIL (10 mg/kg, 3 h, dose level Low) of 0.076 mg/dL and a GLC (10 mg/kg, 3 h, dose level Low) of 194.8 mg/dL. The IP (10 mg/kg, 3 h, dose level Low) was 8.7 mg/dL, the K (10 mg/kg, 3 h, dose level Low) was 3.9 meq/L and the LDH (10 mg/kg, 3 h, dose level Low) was 198.6 IU/L. The Na (10 mg/kg, 3 h, dose level Low) was 141 meq/L, the PL (10 mg/kg, 3 h, dose level Low) was 141.2 mg/dL and the RALB (10 mg/kg, 3 h, dose level Low) was 3.3 g/dL. It also gave a TBIL (10 mg/kg, 3 h, dose level Low) of 0.1 mg/dL, a TC (10 mg/kg, 3 h, dose level Low) of 81 mg/dL and a TG (10 mg/kg, 3 h, dose level Low) of 67.4 mg/dL. For the same compound, the TP (10 mg/kg, 3 h, dose level Low) was 5.4 g/dL, the gamma-GTP (10 mg/kg, 3 h, dose level Low) was 0.8 IU/L and the TERMINAL_BW (10 mg/kg, 6 h, dose level Low) was 217.9 g. The APTT (10 mg/kg, 6 h, dose level Low) was 19.4 s, the Bas (10 mg/kg, 6 h, dose level Low) was 0% and the Eos (10 mg/kg, 6 h, dose level Low) was 1%. For the same compound, the Fbg (10 mg/kg, 6 h, dose level Low) was 222.2 mg/dL, the Hb (10 mg/kg, 6 h, dose level Low) was 13.6 g/dL and the Ht (10 mg/kg, 6 h, dose level Low) was 38.4%. The Lym (10 mg/kg, 6 h, dose level Low) was 76.2%, the MCH (10 mg/kg, 6 h, dose level Low) was 21.6 pg and the MCHC (10 mg/kg, 6 h, dose level Low) was 35.3%. For the same compound, the MCV (10 mg/kg, 6 h, dose level Low) was 61 fL, the Mono (10 mg/kg, 6 h, dose level Low) was 2.8% and the Neu (10 mg/kg, 6 h, dose level Low) was 18.4%. It also gave a PT (10 mg/kg, 6 h, dose level Low) of 12.7 s, a Plat (10 mg/kg, 6 h, dose level Low) of 121.4 x10_4/uL and an RBC (10 mg/kg, 6 h, dose level Low) of 629.8 x10_4/ul. It also gave a Ret (10 mg/kg, 6 h, dose level Low) of 7.6%, a WBC (10 mg/kg, 6 h, dose level Low) of 96.2 x10_2/uL and a KIDNEY_L (10 mg/kg, 6 h, dose level Low) of 1 g. For the same compound, the KIDNEY_R (10 mg/kg, 6 h, dose level Low) was 1 g, the KIDNEY_TOTAL (10 mg/kg, 6 h, dose level Low) was 2 g and the LIVER (10 mg/kg, 6 h, dose level Low) was 9.9 g. For the same compound, the A/G (10 mg/kg, 6 h, dose level Low) was 1.7, the ALP (10 mg/kg, 6 h, dose level Low) was 930.6 IU/L and the ALT (10 mg/kg, 6 h, dose level Low) was 32 IU/L. It also gave an AST (10 mg/kg, 6 h, dose level Low) of 61 IU/L, a BUN (10 mg/kg, 6 h, dose level Low) of 11.4 mg/dL and a CRE (10 mg/kg, 6 h, dose level Low) of 0.4 mg/dL. It also gave a Ca (10 mg/kg, 6 h, dose level Low) of 10.7 mg/dL, a Cl (10 mg/kg, 6 h, dose level Low) of 102.8 meq/L and a DBIL (10 mg/kg, 6 h, dose level Low) of 0.088 mg/dL. It also gave a GLC (10 mg/kg, 6 h, dose level Low) of 194.2 mg/dL, an IP (10 mg/kg, 6 h, dose level Low) of 8.8 mg/dL and a K (10 mg/kg, 6 h, dose level Low) of 4.2 meq/L. For the same compound, the LDH (10 mg/kg, 6 h, dose level Low) was 175.8 IU/L, the Na (10 mg/kg, 6 h, dose level Low) was 140.6 meq/L and the PL (10 mg/kg, 6 h, dose level Low) was 140.8 mg/dL. It also gave an RALB (10 mg/kg, 6 h, dose level Low) of 3.5 g/dL, a TBIL (10 mg/kg, 6 h, dose level Low) of 0.1 mg/dL and a TC (10 mg/kg, 6 h, dose level Low) of 75 mg/dL. For the same compound, the TG (10 mg/kg, 6 h, dose level Low) was 77.6 mg/dL, the TP (10 mg/kg, 6 h, dose level Low) was 5.5 g/dL and the gamma-GTP (10 mg/kg, 6 h, dose level Low) was 0.6 IU/L. It also gave a TERMINAL_BW (10 mg/kg, 9 h, dose level Low) of 215.9 g, an APTT (10 mg/kg, 9 h, dose level Low) of 18.5 s and a Bas (10 mg/kg, 9 h, dose level Low) of 0%. For the same compound, the Eos (10 mg/kg, 9 h, dose level Low) was 1%, the Fbg (10 mg/kg, 9 h, dose level Low) was 226.2 mg/dL and the Hb (10 mg/kg, 9 h, dose level Low) was 13.3 g/dL. The Ht (10 mg/kg, 9 h, dose level Low) was 37.5%, the Lym (10 mg/kg, 9 h, dose level Low) was 79.6% and the MCH (10 mg/kg, 9 h, dose level Low) was 21.9 pg. It also gave an MCHC (10 mg/kg, 9 h, dose level Low) of 35.5%, an MCV (10 mg/kg, 9 h, dose level Low) of 61.8 fL and a Mono (10 mg/kg, 9 h, dose level Low) of 2.6%. It also gave a Neu (10 mg/kg, 9 h, dose level Low) of 15.8%, a PT (10 mg/kg, 9 h, dose level Low) of 12.7 s and a Plat (10 mg/kg, 9 h, dose level Low) of 112.8 x10_4/uL. It also gave an RBC (10 mg/kg, 9 h, dose level Low) of 607 x10_4/ul, a Ret (10 mg/kg, 9 h, dose level Low) of 7.3% and a WBC (10 mg/kg, 9 h, dose level Low) of 86.5 x10_2/uL. For the same compound, the KIDNEY_L (10 mg/kg, 9 h, dose level Low) was 1 g, the KIDNEY_R (10 mg/kg, 9 h, dose level Low) was 1 g and the KIDNEY_TOTAL (10 mg/kg, 9 h, dose level Low) was 2 g. For the same compound, the LIVER (10 mg/kg, 9 h, dose level Low) was 9.4 g, the A/G (10 mg/kg, 9 h, dose level Low) was 1.6 and the ALP (10 mg/kg, 9 h, dose level Low) was 712.8 IU/L. For the same compound, the ALT (10 mg/kg, 9 h, dose level Low) was 32.2 IU/L, the AST (10 mg/kg, 9 h, dose level Low) was 56.2 IU/L and the BUN (10 mg/kg, 9 h, dose level Low) was 10.2 mg/dL. For the same compound, the CRE (10 mg/kg, 9 h, dose level Low) was 0.3 mg/dL, the Ca (10 mg/kg, 9 h, dose level Low) was 10.4 mg/dL and the Cl (10 mg/kg, 9 h, dose level Low) was 103 meq/L. It also gave a DBIL (10 mg/kg, 9 h, dose level Low) of 0.068 mg/dL, a GLC (10 mg/kg, 9 h, dose level Low) of 197.2 mg/dL and an IP (10 mg/kg, 9 h, dose level Low) of 9.4 mg/dL. For the same compound, the K (10 mg/kg, 9 h, dose level Low) was 3.8 meq/L, the LDH (10 mg/kg, 9 h, dose level Low) was 205.2 IU/L and the Na (10 mg/kg, 9 h, dose level Low) was 140.6 meq/L. It also gave a PL (10 mg/kg, 9 h, dose level Low) of 140 mg/dL, an RALB (10 mg/kg, 9 h, dose level Low) of 3.4 g/dL and a TBIL (10 mg/kg, 9 h, dose level Low) of 0.1 mg/dL. It also gave a TC (10 mg/kg, 9 h, dose level Low) of 79.8 mg/dL, a TG (10 mg/kg, 9 h, dose level Low) of 51.2 mg/dL and a TP (10 mg/kg, 9 h, dose level Low) of 5.5 g/dL. It also gave a gamma-GTP (10 mg/kg, 9 h, dose level Low) of 0.6 IU/L, a TERMINAL_BW (10 mg/kg, 24 h, dose level Low) of 233.4 g and an APTT (10 mg/kg, 24 h, dose level Low) of 18.6 s. It also gave a Bas (10 mg/kg, 24 h, dose level Low) of 0%.
